Reference: ChEMBL document CHEMBL5723584 (2023)

Legend:
Conditions in all cases: Compound concentration 1.0 uM
ATR/ATRIP (Homo sapiens) = ATR/ATRIP (Homo sapiens) (UniProt Q13535+Q8WXE1); assay: activity of ATR/ATRIP(h) at 1.0 µM in the Eurofins Kinase panel; assay type: protein-complex assay
[1] = target: Tyrosine-protein kinase Blk (Homo sapiens) (UniProt P51451); assay: activity of Blk(h) at 1.0 µM in the Eurofins Kinase panel
[2] = target: Calcium/calmodulin-dependent protein kinase type 1B (Homo sapiens) (UniProt Q6P2M8); assay: activity of CaMKIbeta(h) at 1.0 µM in the Eurofins Kinase panel
[3] = target: Cyclin-dependent kinase 14/Cyclin-Y (Homo sapiens) (UniProt O94921+Q8ND76); assay: activity of CDK14/cyclinY(h) at 1.0 µM in the Eurofins Kinase panel; assay type: protein-complex assay
[4] = target: CDK17/Cyclin-Y (Homo sapiens) (UniProt Q00537+Q8ND76); assay: activity of CDK17/cyclinY(h) at 1.0 µM in the Eurofins Kinase panel; assay type: protein-complex assay
[5] = target: CDK18/Cyclin Y (Homo sapiens) (UniProt Q07002+Q8ND76); assay: activity of CDK18/cyclinY(h) at 1.0 µM in the Eurofins Kinase panel; assay type: protein-complex assay
[6] = target: CDK3/Cyclin E (Homo sapiens) (UniProt P24864+Q00526); assay: activity of CDK3/cyclinE(h) at 1.0 µM in the Eurofins Kinase panel; assay type: protein-complex assay
[7] = target: Casein kinase II subunit alpha (Homo sapiens) (UniProt P68400); assay: activity of CK2alpha1(h) at 1.0 µM in the Eurofins Kinase panel
[8] = target: DNA-dependent protein kinase catalytic subunit (Homo sapiens) (UniProt P78527); assay: activity of DNA-PK(h) at 1.0 µM in the Eurofins Kinase panel
[9] = target: Macrophage colony-stimulating factor 1 receptor (Homo sapiens) (UniProt P07333); assay: activity of Fms(h) at 1.0 µM in the Eurofins Kinase panel
[10] = target: Rhodopsin kinase GRK1 (Homo sapiens) (UniProt Q15835); assay: activity of GRK1(h) at 1.0 µM in the Eurofins Kinase panel
[11] = target: Serine/threonine-protein kinase haspin (Homo sapiens) (UniProt Q8TF76); assay: activity of Haspin(h) at 1.0 µM in the Eurofins Kinase panel
[12] = target: Homeodomain-interacting protein kinase 2 (Homo sapiens) (UniProt Q9H2X6); assay: activity of HIPK2(h) at 1.0 µM in the Eurofins Kinase panel
[13] = target: Homeodomain-interacting protein kinase 3 (Homo sapiens) (UniProt Q9H422); assay: activity of HIPK3(h) at 1.0 µM in the Eurofins Kinase panel
[14] = target: Tyrosine-protein kinase JAK3 (Homo sapiens) (UniProt P52333); assay: activity of JAK3(h) at 1.0 µM in the Eurofins Kinase panel
[15] = target: Tyrosine-protein kinase Lck (Homo sapiens) (UniProt P06239); assay: activity of Lck(h) at 1.0 µM in the Eurofins Kinase panel
[16] = target: MAP kinase-activated protein kinase 3 (Homo sapiens) (UniProt Q16644); assay: activity of MAPKAP-K3(h) at 1.0 µM in the Eurofins Kinase panel
[17] = target: MAP/microtubule affinity-regulating kinase 4 (Homo sapiens) (UniProt Q96L34); assay: activity of MARK4(h) at 1.0 µM in the Eurofins Kinase panel
[18] = target: Mitogen-activated protein kinase kinase kinase 2 (Homo sapiens) (UniProt Q9Y2U5); assay: activity of MEKK2(h) at 1.0 µM in the Eurofins Kinase panel
[19] = target: Misshapen-like kinase 1 (Homo sapiens) (UniProt Q8N4C8); assay: activity of MINK(h) at 1.0 µM in the Eurofins Kinase panel
[20] = target: Mitogen-activated protein kinase kinase kinase 9 (Homo sapiens) (UniProt P80192); assay: activity of MLK1(h) at 1.0 µM in the Eurofins Kinase panel
[21] = target: Serine/threonine-protein kinase 38-like (Homo sapiens) (UniProt Q9Y2H1); assay: activity of NDR2(h) at 1.0 µM in the Eurofins Kinase panel
[22] = target: Serine/threonine-protein kinase Nek1 (Homo sapiens) (UniProt Q96PY6); assay: activity of NEK1(h) at 1.0 µM in the Eurofins Kinase panel
[23] = target: Serine/threonine-protein kinase Nek6 (Homo sapiens) (UniProt Q9HC98); assay: activity of NEK6(h) at 1.0 µM in the Eurofins Kinase panel
[24] = target: Serine/threonine-protein kinase PAK 3 (Homo sapiens) (UniProt O75914); assay: activity of PAK3(h) at 1.0 µM in the Eurofins Kinase panel
[25] = target: Serine/threonine-protein kinase PAK 5 (Homo sapiens) (UniProt Q9P286); assay: activity of PAK5(h) at 1.0 µM in the Eurofins Kinase panel
[26] = target: PI3-kinase p110-alpha/p85-alpha (Homo sapiens) (UniProt P27986+P42336); assay: activity of PI3 Kinase (p110alpha/p85alpha)(h) at 1.0 µM in the Eurofins Kinase panel; assay type: protein-complex assay
[27] = target: Phosphatidylinositol 4,5-bisphosphate 3-kinase catalytic subunit gamma isoform (Homo sapiens) (UniProt P48736); assay: activity of PI3 Kinase (p120gamma)(h) at 1.0 µM in the Eurofins Kinase panel
[28] = target: Serine/threonine-protein kinase pim-3 (Homo sapiens) (UniProt Q86V86); assay: activity of Pim-3(h) at 1.0 µM in the Eurofins Kinase panel
[29] = target: RAC-beta serine/threonine-protein kinase (Homo sapiens) (UniProt P31751); assay: activity of PKBbeta(h) at 1.0 µM in the Eurofins Kinase panel
[30] = target: Interferon-induced, double-stranded RNA-activated protein kinase (Homo sapiens) (UniProt P19525); assay: activity of PKR(h) at 1.0 µM in the Eurofins Kinase panel
[31] = target: Mitogen-activated protein kinase 12 (Homo sapiens) (UniProt P53778); assay: activity of SAPK3(h) at 1.0 µM in the Eurofins Kinase panel
[32] = target: Serine/threonine-protein kinase Sgk3 (Homo sapiens) (UniProt Q96BR1); assay: activity of SGK3(h) at 1.0 µM in the Eurofins Kinase panel
[33] = target: Serine/threonine-protein kinase 16 (Homo sapiens) (UniProt O75716); assay: activity of STK16(h) at 1.0 µM in the Eurofins Kinase panel
[34] = target: Tyrosine-protein kinase Tec (Homo sapiens) (UniProt P42680); assay: activity of Tec(h) activated at 1.0 µM in the Eurofins Kinase panel
[35] = target: Dual specificity protein kinase TTK (Homo sapiens) (UniProt P33981); assay: activity of TTK(h) at 1.0 µM in the Eurofins Kinase panel
[36] = target: Mitogen-activated protein kinase kinase kinase 20 (Homo sapiens) (UniProt Q9NYL2); assay: activity of ZAK(h) at 1.0 µM in the Eurofins Kinase panel
[37] = target: Tyrosine-protein kinase ZAP-70 (Homo sapiens) (UniProt P43403); assay: activity of ZAP-70(h) at 1.0 µM in the Eurofins Kinase panel

Serine/threonine-protein kinase Nek6 (Homo sapiens), sequence (Q9HC98 whole entry): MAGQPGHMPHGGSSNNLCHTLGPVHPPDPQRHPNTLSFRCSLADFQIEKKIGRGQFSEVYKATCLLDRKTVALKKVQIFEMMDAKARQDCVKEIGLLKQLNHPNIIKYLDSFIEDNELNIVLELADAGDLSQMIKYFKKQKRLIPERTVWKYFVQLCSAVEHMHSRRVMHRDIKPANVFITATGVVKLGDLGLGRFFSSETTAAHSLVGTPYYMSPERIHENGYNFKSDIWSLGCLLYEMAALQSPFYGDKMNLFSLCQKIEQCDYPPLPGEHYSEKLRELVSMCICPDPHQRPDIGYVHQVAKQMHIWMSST
Tyrosine-protein kinase Blk (Homo sapiens), sequence (P51451 2-505 limits assumed): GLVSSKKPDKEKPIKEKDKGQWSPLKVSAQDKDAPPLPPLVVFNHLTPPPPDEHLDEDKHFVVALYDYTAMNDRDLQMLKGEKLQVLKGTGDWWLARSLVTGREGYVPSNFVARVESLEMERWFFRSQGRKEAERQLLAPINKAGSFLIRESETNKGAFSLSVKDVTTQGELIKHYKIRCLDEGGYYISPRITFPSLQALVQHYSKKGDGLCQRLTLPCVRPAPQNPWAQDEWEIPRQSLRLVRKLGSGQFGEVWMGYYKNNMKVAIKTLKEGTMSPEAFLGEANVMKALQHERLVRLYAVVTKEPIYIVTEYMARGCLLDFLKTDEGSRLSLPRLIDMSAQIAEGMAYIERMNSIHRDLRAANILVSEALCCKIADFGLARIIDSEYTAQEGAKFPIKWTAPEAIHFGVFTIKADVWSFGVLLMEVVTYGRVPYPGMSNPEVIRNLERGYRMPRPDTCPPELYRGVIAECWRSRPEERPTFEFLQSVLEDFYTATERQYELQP
ATR/ATRIP (Homo sapiens), sequence (Q13535 whole entry, looked up): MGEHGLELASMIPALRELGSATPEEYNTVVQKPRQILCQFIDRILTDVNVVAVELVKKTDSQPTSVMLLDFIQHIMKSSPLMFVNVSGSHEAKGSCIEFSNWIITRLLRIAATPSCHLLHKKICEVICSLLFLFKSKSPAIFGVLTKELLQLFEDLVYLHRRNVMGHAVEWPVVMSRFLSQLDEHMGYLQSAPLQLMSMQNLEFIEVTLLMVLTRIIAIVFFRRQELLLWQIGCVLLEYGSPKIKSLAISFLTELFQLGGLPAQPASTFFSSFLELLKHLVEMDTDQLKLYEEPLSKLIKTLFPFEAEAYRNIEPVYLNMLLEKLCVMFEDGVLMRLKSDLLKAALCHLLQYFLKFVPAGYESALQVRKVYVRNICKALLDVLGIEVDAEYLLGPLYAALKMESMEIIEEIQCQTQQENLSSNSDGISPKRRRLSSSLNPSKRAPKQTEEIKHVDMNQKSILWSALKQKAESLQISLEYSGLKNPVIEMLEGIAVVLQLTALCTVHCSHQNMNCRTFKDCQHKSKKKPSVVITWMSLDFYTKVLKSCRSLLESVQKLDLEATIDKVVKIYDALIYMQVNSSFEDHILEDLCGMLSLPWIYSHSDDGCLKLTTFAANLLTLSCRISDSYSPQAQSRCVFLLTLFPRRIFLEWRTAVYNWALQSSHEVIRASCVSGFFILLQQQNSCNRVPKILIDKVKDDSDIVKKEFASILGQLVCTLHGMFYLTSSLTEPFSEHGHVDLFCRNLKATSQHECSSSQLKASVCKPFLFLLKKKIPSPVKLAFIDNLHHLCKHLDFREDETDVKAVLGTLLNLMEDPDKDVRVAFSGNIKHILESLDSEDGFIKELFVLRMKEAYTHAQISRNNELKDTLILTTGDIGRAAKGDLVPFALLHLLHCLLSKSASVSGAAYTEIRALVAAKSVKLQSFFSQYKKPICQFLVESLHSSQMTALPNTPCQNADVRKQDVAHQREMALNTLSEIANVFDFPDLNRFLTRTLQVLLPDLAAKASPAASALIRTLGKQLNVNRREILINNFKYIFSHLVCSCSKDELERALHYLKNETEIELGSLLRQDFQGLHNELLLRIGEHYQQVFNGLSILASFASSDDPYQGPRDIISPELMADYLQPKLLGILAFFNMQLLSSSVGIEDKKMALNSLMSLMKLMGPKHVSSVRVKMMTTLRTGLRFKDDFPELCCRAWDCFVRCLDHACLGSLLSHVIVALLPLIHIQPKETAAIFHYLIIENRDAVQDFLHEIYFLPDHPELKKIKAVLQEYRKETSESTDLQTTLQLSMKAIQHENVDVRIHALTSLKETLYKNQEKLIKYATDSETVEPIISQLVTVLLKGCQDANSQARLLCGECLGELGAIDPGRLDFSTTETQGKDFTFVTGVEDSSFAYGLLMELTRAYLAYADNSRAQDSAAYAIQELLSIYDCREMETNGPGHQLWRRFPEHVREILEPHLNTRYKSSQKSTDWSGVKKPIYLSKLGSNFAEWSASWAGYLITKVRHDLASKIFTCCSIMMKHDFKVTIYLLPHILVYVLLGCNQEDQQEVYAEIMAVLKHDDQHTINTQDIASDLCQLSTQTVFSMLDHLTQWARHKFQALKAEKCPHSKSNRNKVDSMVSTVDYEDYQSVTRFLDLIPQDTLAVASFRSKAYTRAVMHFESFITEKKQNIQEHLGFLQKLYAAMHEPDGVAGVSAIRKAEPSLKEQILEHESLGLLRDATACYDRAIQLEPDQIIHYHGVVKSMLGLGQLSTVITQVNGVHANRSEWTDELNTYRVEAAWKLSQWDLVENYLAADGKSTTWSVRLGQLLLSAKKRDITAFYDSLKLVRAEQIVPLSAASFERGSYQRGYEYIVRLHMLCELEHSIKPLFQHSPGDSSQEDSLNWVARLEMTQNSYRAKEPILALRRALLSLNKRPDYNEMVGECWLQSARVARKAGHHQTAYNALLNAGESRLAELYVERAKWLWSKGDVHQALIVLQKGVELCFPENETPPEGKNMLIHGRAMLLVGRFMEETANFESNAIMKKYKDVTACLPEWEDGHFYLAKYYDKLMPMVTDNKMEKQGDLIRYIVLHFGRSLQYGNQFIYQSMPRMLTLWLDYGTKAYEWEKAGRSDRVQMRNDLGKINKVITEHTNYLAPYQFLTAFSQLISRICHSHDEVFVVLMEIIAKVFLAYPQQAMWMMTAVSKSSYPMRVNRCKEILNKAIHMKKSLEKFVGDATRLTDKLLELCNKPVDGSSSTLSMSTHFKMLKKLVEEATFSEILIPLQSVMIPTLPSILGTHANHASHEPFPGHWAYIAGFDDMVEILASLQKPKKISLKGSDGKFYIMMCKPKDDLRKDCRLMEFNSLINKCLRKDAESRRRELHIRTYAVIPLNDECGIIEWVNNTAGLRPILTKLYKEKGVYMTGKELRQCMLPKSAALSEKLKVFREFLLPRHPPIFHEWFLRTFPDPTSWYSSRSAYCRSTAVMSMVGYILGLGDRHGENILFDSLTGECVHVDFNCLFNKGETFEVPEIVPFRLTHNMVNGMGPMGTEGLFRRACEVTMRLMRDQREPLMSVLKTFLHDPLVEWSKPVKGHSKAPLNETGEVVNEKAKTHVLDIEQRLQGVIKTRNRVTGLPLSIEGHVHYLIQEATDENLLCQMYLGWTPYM
ATR/ATRIP (Homo sapiens), sequence (Q8WXE1 whole entry, looked up): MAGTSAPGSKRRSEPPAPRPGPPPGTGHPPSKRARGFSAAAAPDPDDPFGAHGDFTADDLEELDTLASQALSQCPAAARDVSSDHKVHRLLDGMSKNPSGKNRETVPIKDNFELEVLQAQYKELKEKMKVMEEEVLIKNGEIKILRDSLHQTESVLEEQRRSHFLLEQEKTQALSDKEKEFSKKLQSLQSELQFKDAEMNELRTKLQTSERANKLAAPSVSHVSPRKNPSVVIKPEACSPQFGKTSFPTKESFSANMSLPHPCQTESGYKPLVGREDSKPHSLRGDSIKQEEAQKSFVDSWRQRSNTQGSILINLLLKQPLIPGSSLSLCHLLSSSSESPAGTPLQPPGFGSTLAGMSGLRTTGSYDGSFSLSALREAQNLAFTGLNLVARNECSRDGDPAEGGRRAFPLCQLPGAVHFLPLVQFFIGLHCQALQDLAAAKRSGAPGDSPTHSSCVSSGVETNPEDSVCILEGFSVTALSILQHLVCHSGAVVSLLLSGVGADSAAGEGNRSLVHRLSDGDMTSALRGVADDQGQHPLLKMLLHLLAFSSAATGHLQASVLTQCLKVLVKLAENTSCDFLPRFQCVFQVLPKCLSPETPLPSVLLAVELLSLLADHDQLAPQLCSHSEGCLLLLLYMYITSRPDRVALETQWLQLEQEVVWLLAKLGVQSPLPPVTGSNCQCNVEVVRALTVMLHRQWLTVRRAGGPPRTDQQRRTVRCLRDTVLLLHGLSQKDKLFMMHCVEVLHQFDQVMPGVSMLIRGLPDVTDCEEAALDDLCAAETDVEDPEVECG
Serine/threonine-protein kinase PAK 5 (Homo sapiens), sequence (Q9P286 whole entry, looked up): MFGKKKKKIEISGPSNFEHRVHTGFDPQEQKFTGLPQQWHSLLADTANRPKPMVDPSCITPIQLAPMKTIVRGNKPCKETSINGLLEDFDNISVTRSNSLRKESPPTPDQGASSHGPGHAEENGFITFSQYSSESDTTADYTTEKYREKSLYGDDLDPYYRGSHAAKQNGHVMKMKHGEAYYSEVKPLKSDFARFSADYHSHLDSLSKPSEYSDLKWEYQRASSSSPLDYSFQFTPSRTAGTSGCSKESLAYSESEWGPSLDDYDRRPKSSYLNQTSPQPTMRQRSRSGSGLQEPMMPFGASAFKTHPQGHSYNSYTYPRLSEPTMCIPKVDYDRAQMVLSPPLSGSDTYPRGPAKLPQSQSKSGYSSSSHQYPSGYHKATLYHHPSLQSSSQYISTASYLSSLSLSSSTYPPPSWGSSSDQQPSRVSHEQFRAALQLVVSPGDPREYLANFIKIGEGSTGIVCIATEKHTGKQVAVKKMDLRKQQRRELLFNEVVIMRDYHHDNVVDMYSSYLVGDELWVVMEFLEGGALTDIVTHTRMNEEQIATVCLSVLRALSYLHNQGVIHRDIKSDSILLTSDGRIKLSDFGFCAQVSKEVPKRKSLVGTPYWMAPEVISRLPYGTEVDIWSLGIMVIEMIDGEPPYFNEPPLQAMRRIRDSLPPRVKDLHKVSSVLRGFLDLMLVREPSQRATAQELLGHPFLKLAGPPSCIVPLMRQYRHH

Cc1cc2c(-c3ccc(NC(=O)[C@H](N)CC(C)(C)C)cc3C)ccnc2[nH]1
activity (ATR/ATRIP (Homo sapiens)): 110%
activity [1]: 88%
activity [2]: 85%
activity [3]: 91%
activity [4]: 108%
activity [5]: 94%
activity [6]: 102%
activity [7]: 112%
activity [8]: 107%
activity [9]: 115%
activity [10]: 86%
activity [11]: 140%
activity [12]: 105%
activity [13]: 85%
activity [14]: 106%
activity [15]: 86%
activity [16]: 125%
activity [17]: 92%
activity [18]: 122%
activity [19]: 89%
activity [20]: 103%
activity [21]: 107%
activity [22]: 94%
activity [23]: 86%
activity [24]: 89%
activity [25]: 87%
activity [26]: 96%
activity [27]: 105%
activity [28]: 103%
activity [29]: 109%
activity [30]: 85%
activity [31]: 113%
activity [32]: 102%
activity [33]: 94%
activity [34]: 126%
activity [35]: 102%
activity [36]: 83%
activity [37]: 71%
